Measured values from patent US6756373B1, “Pharmaceutically active compounds” (Pfizer Inc., priority 1999, dated 2004).

Experiments:
cGMP PDE5 = cGMP PDE5 (UniProt O76074); experiment: Phosphodiesterase (PDE) inhibitory activity: in vitro inhibition of cGMP PDE5 (batch method or scintillation proximity assay); conditions: in vitro activity as inhibitors of cGMP PDE5
Method: Phosphodiesterases 7-11 were generated from full length human recombinant clones transfected into SF9 cells.
In summary, the effect of PDE inhibitors was investigated by assaying a fixed amount of enzyme in the presence of varying inhibitor concentrations and low substrate, (cGMP or cAMP in a 3:1 ratio unlabelled to [^3H]-labeled at a conc ˜1/3 Km) such that IC50≅Ki. The final assay volume was made up to 100 μl with assay buffer [20 mM Tris-HCl pH 7.4, 5 mM MgCl2, 1 mg/ml bovine serum albumin].

Row | melting point [°C] | IC50 (cGMP PDE5) [nM] | Compound
1 | 267 to 270 | 0.9 | CCCOc1ncc(NS(=O)(=O)CC(=O)O)cc1-c1nc2c(CCC)nn(C)c2c(=O)[nH]1 [Example 80, ({[5-(1-Methyl-7-oxo-3-propyl-6,7-dihydro-1H-pyrazolo[4,3-d]pyrimidin-5-yl)-6-propoxy-3-pyridinyl]amino}sulfonyl)acetic Acid]
2 | – | 1 | CCCOc1ncc(-c2nnn[nH]2)cc1-c1nc2c(CCC)nn(C)c2c(=O)[nH]1 [Example 71, 1-Methyl-5-[2-propoxy-5-(1H-tetrazol-5-yl)-3-pyridinyl]-3-propyl-1,6-dihydro-7H-pyrazolo[4,3-d]pyrimidin-7-one]
3 | – | 0.3 | CCCOc1ncc(C#CC(=O)OCC)cc1-c1nc2c(CCC)nn(C)c2c(=O)[nH]1 [Example 72]
4 | 175 | 4 | CCCOc1ncc(NCC(=O)OC)cc1-c1nc2c(CCC)nn(C)c2c(=O)[nH]1 [Example 82, Methyl {[5-(1-Methyl-7-oxo-3-propyl-6,7-dihydro-1H-pyrazolo[4,3-d]pyrimidin-5-yl)-6-propoxy-3-pyridinyl]amino}acetate]
5 | – | 2.45 | CCCCOc1ncc(C(C)=O)cc1-c1nc2c(CC)n(CCN3CCOCC3)nc2c(=O)[nH]1 [Example 48]
6 | – | 3 | CCCOc1ncc(N(S(C)(=O)=O)S(C)(=O)=O)cc1-c1nc2c(CCC)nn(C)c2c(=O)[nH]1 [Example 76, N-[5-(1-Methyl-7-oxo-3-propyl-6,7-dihydro-1H-pyrazolo[4,3-d]pyrimidin-5-yl)-6-propoxy-3-pyridinyl]-N-(methylsulfonyl)methanesulfonamide]
7 | – | 7 | CCCOc1ncc(I)cc1-c1nc2c(CC)nn(CC(=O)OC(C)(C)C)c2c(=O)[nH]1 [Example 64, tert-butyl [3-ethyl-5-(5-iodo-2-propoxy-3-pyridinyl)-7-oxo-6,7-dihydro-1H-pyrazolo[4,3-d]pyrimidin-1-yl]acetate]
8 | – | 5 | CCCOc1ncc(NCC(=O)O)cc1-c1nc2c(CCC)nn(C)c2c(=O)[nH]1 [Example 75, {[5-(1-Methyl-7-oxo-3-propyl-6,7-dihydro-1H-pyrazolo[4,3-d]pyrimidin-5-yl)-6-propoxy-3-pyridinyl]amino}acetic Acid]
9 | – | 7.5 | CCCOc1ncc(N[C@@H](C)C(=O)O)cc1-c1nc2c(CCC)nn(C)c2c(=O)[nH]1 [Example 84, N-[5-(1-Methyl-7-oxo-3-propyl-6,7-dihydro-1H-pyrazolo[4,3-d]pyrimidin-5-yl)-6-propoxy-3-pyridinyl]alanine]
10 | 239 to 241 | 5 | CCCOc1ncc(-c2cc(O)no2)cc1-c1nc2c(CCC)nn(C)c2c(=O)[nH]1 [Example 73, 5-[5-(3-Hydroxy-5-isoxazolyl)-2-propoxy-3-pyridinyl]-1-methyl-3-propyl-1,6-dihydro-7H-pyrazolo[4,3-d]pyrimidin-7-one]
11 | – | 4 | CCCOc1ncc(I)cc1-c1nc2c(CC)n(CC(=O)OC(C)(C)C)nc2c(=O)[nH]1 [Example 65, tert-butyl [3-ethyl-5-(5-iodo-2-propoxy-3-pyridinyl)-7-oxo-6,7-dihydro-2H-pyrazolo[4,3-d]-pyrimidin-2-yl]acetate]
12 | – | 1.41 | CCOc1ncc(C(C)=O)cc1-c1nc2c(-c3ccc(N(C)C)nc3)n(C)nc2c(=O)[nH]1 [Example 59, 5-(5-Acetyl-2-ethoxy-3-pyridinyl)-3-[6-(dimethylamino)-3-pyridinyl]-2-methyl-2,6-dihydro-7H-pyrazolo[4,3-d]pyrimidin-7-one]
13 | – | 2 | CCCOc1ncc(N2CCN(S(=O)(=O)c3ccc(C)cc3)CC2)cc1-c1nc2c(CCC)nn(C)c2c(=O)[nH]1 [Example 81, 1-Methyl-5-(5-{4-[(4-methylphenyl)sulfonyl]-1-piperazinyl}-2-propoxy-3-pyridinyl)-3-propyl-1,6-dihydro-7H-pyrazolo[4,3-d]pyrimidin-7-one]
14 | 261 to 262 | 1.6 | CCCOc1ncc(NC(=O)CC(=O)O)cc1-c1nc2c(CCC)nn(C)c2c(=O)[nH]1 [Example 79, N-[5-(1-Methyl-7-oxo-3-propyl-6,7-dihydro-1H-pyrazolo[4,3-d]pyrimidin-5-yl)-6-propoxy-3-pyridinyl]-3-oxo-β-alanine]
15 | – | 0.3 | CCCOc1ncc(NC(=O)CC(=O)OC)cc1-c1nc2c(CCC)nn(C)c2c(=O)[nH]1 [Example 78, Methyl 3-{[5-(1-methyl-7-oxo-3-propyl-6,7-dihydro-1H-pyrazolo[4,3-d]-pyrimidin-5-yl)-6-propoxy-3-pyridinyl]amino}-3-oxopropanoate]
16 | 228.9 to 233.8 | – | CCCOc1ncc(I)cc1-c1nc2c(CC)n(Cc3ccccn3)nc2c(=O)[nH]1 [Example 98, 5-(2-Propoxy-5-iodo-3-pyridinyl)-3-ethyl-2-(2-pyridinylmethyl)-2,6-dihydro-7H-pyrazolo[4,3-d]pyrimidin-7-one]
17 | 185 to 187 | 2 | CCCOc1ncc(NC(C)C(=O)OC)cc1-c1nc2c(CCC)nn(C)c2c(=O)[nH]1 (centres unmarked) [Example 83, Methyl 2-{[5-(1-Methyl-7-oxo-3-propyl-6,7-dihydro-1H-pyrazolo[4,3-d]-pyrimidin-5-yl)-6-propoxy-3-pyridinyl]amino}propanoate]
18 | – | 0.9 | CCCOc1ncc(NS(C)(=O)=O)cc1-c1nc2c(CCC)nn(C)c2c(=O)[nH]1 [Example 77, N-[5-(1-Methyl-7-oxo-3-propyl-6,7-dihydro-1H-pyrazolo[4,3-d]pyrimidin-5-yl)-6-propoxy-3-pyridinyl]methanesulfonamide]
19 | 213 to 214 | – | CCCOc1ncc(C(C)=O)cc1-c1nc2c(CC)n(C3CCN(C(C)=O)CC3)nc2c(=O)[nH]1 [Example 122, 2-(1-acetyl-4-piperidinyl)-5-(5-acetyl-2-propoxy-3-pyridinyl)-3-ethyl-2,6-dihydro-7H-pyrazolo[4,3-d]pyrimidin-7-one]

Row | Compound | melting point [°C] | IC50 (cGMP PDE5) [nM]
20 | CCCCOc1ncc(C(=O)N(C)OC)cc1-c1nc2c(CC)n(CCOC)nc2c(=O)[nH]1 [Example 5, 6-Butoxy-5-[3-ethyl-2-(2-methoxyethyl)-7-oxo-6,7-dihydro-2H-pyrazolo[4,3-d]pyrimidin-5-yl]-N-methoxy-N-methylnicotinamide] | – | 8.5
21 | CCCCOc1ncc(C(C)=O)cc1-c1nc2c(CC)n(CCOC)nc2c(=O)[nH]1 [Example 16, 5-(5-Acetyl-2-butoxy-3-pyridinyl)-3-ethyl-2-(2-methoxyethyl)-2,6-dihydro-7H-pyrazolo[4,3-d]pyrimidin-7-one] | – | 6.55
22 | CCCCOc1ncc(C(C)=O)cc1-c1nc2c(CC)n(C3CCNCC3)nc2c(=O)[nH]1 [Example 49, 5-(5-Acetyl-2-butoxy-3-pyridinyl)-3-ethyl-2-(4-piperidinyl)-2,6-dihydro-7H-pyrazolo[4,3-d]pyrimidin-7-one] | – | 18
23 | CCCCOc1ncc(C(=O)CN2CCOCC2)cc1-c1nc2c(CC)n(CCOC)nc2c(=O)[nH]1 [Example 34, 5-[2-Butoxy-5-(4-morpholinylacetyl)-3-pyridinyl]-3-ethyl-2-(2-methoxyethyl)-2,6-dihydro-7H-pyrazolo[4,3-d]pyrimidin-7-one] | – | 30.7
24 | CCCCOc1ncc(C(C)=O)cc1-c1nc2c(CC)n(C3CCN(C(C)=O)CC3)nc2c(=O)[nH]1 [Example 131, 5-(5-Acetyl-2-butoxy-3-pyridinyl)-2-(1-acetyl-4-piperidinyl)-3-ethyl-2,6-dihydro-7H-pyrazolo[4,3-d]pyrimidin-7-one] | 156 to 157 | –
